Where no end group is shown, it is not given here.
Legend:
[1] = target: T1, human 20S proteasome (Homo sapiens, UniProt P25788); test: Ki determinations, non-competitive kinetics with Suc-LLVY-AMC; format: biochemical; details: for Ki relative to PR11: comparison of Table III values
[2] = system: 20S proteasome; details: cited from earlier work
[3] = target: T1, human 20S proteasome; test: Inhibition of chymotrypsin-like activity of 20S proteasome by PR-peptides; format: biochemical; details: same experiment as I50; n of Eq. 1

Sequence	Ki [1]	Ki relative to PR11 [1]	also measured
RRRPRPPALPRW [Peptide A8W12]	50.7 nM	nearly half of PR11	
RRRPRPPFLPRW [Peptide F8W12]	184 nM	about two-fold greater than that of PR11	
RRRPRPPY [PR8]			Inhibition of 20S proteasome [2]: does not inhibit 20S proteasome
RRRPRPPYLPR [PR11]	86.5 nM		
RRRPRPPYLPRPRPPPFFPPRLPPRIPPGFPPRFPPRFP [PR39]			N (fractional occupation of PR-peptide on 20S proteasome, derived from curve-fitting) [3]: 1.232
RRRPRPPYLPRW [Peptide W12]	39.5 nM		
